Assay results taken from publication PMC9328652, “A novel class of fast‐acting antimalarial agents: Substituted 15‐membered azalides” (British Journal of Pharmacology, 2020).
Read-outs that look alike come from different tables or passages of the source. Marks after values point to notes of the source that are not given here.

Key:
[1] = tested on: Plasmodium falciparum 7G8 (CQ, PY); assay: [3H]hypoxanthine incorporation antimalarial assay, strain 7G8; format: cell-based
Method: (§1) The activity of the test compounds against P. falciparum in vitro was determined using the tritiated hypoxanthine incorporation assay of Desjardins et al. and additionally modified by Milhous and Chulay (Chulay, Haynes, & Diggs, [1983]; Milhous, Weatherly, Bowdre, & Desjardins, [1985]).
(§2) Compounds were dissolved in DMSO and subsequently diluted in the culture medium (RPMI 1640) supplemented with 10% v/v human plasma. Serial 1:2 drug dilutions were prepared in triplicate in microtitre plates. Culture medium supplemented with 10% v/v human plasma and type A Rhesus positive human erythrocytes infected with P. falciparum strains was added to yield a haematocrit of 3% and a parasitaemia of 0.25–0.55%. The plates were incubated at 37°C in a modular incubator flushed with a mixture of 5% oxygen, 3% carbon dioxide, and 92% nitrogen for 48 h, and then [^3H]hypoxanthine was added to give a final concentration of 12.5–16 μCi·ml^−1. After incubation for additional 24 h, particulate matter was harvested on fibreglass strips and hypoxanthine incorporation determined by scintillation spectrophotometry. […] Delayed death experiments were performed by this standard method but extending the incubation time with the drug up to 96 h.

HepG2 cells = settings: cited from earlier work
[2] = tested on: P. falciparum 3D7^0087/N9; assay: P. falciparum murine model (humanized mice), 4-day test; format: in vivo, Plasmodium falciparum; settings: for ED90: oral QD for 4 days, parasitaemia at day 7, humanized mice
Method: The in vivo efficacy evaluation of the compounds was performed using a P. falciparum murine model of malaria in non‐myelodepleted NOD. Cg‐Prkdc^ scid –β2m^ tm1Unc ‐scid IL2R_null (NODscidβ2m^−/−) mice engrafted with human erythrocytes as described previously (Angulo‐Barturen et al., [2008]; Jimenez‐Diaz et al., [2005]; Jimenez‐Diaz et al., [2009]; Jimenez‐Diaz et al., [2009]), as this model enables testing of P. falciparum strains with high infectious burden. Briefly, groups of three mice engrafted with human erythrocytes were infected with 20 × 10^6 of P. falciparum 3D7^0087/N9‐infected erythrocytes/mouse by intravenous route. The mice were randomly assigned to their corresponding experimental groups. The treatment of oral doses QD for 4 days started at day 3 after infection. Parasitaemia was measured at days 3, 5, and 7 post‐infection. The therapeutic efficacy was expressed as the dose (mg·kg^−1) that reduced parasitaemia in peripheral blood of mice at day 7 after infection by 90% (ED90) with respect to vehicle‐treated mice. Chloroquine was included as quality control for each in vivo assay. Efficacy is expressed as the daily dose (ED90), or equivalent exposure (AUCED90), administered to mice necessary to reduce parasitaemia at day 7 by 90% with respect to vehicle‐treated mice. The ED90 is estimated by fitting a four‐decade logistic equation for the log10 [parasitaemia at day 7] versus the log10 [dose] using GraphPad Prism 5.01 (GraphPad Software Inc., San Diego, CA).

[3] = tested on: Plasmodium falciparum T9/94 (CQ); assay: [3H]hypoxanthine incorporation antimalarial assay, strain T9/94; format: cell-based; settings: 72 h, read-out: IC50 T9/94 (CQ)
Method: as §1, §2

[4] = Pharmacokinetic studies in CD-1 mice; settings: for B/P (ratio of AUC0−t in whole blood and plasma): after oral administration; for DNAUCPO (AUC0−t divided by the dose) / Cmax: blood; for DNAUCPO (AUC0−t divided by the dose): oral gavage 12.5 mg·kg^−1; for half-life / Vd / clearance / bioavailability / AUC(0-t) / Cmax: Swiss albino CD-1, mouse; for Vd / clearance: iv; for AUC(0-t): AUC0-t; for AUC(0-t) / Cmax: oral gavage 12.5 mg/kg; for Cmax: C max
Method: For pharmacokinetic (PK) studies in mice, animals were dosed either by intravenous (i.v.) or oral (p.o.) route. For i.v. administration, the dosing volume was 10 ml·kg^−1 for a total dose of 12.5 mg·kg^−1, and for p.o. administration, the dosing volume was 20 ml·kg^−1 for a total dose of 12.5 mg·kg^−1. Dosing solutions were prepared in 100% saline ([…]) both for i.v. and p.o. administration for all compounds with the exception of compound 4 for which dosing solutions were prepared in PBS with 5% Cremophor‐EL (Fluka). Following i.v. dosing, blood samples were collected at 5 and 15 min, 1, 3, 6, 8, 24, and 48 h post‐dose. Following oral dosing, blood samples were collected at 15 and 30 min, 1, 2, 4, 6, 8, 24, and 48 h post‐dose.
For studies performed in Swiss albino CD‐1 mice (Harlan Laboratories, Spain), in order to obtain simultaneous blood and plasma profiles and blood‐to‐plasma (B/P) ratio, PK was performed using terminal sampling of N = 3 animals per time point and data evaluated using composite analysis. For studies performed in P. falciparum infected and non‐infected NODscidβ2m^−/− mice (Charles River Laboratories, France), only whole blood was obtained by serial sampling of N = 3 animals using tail puncture.
For analysis of whole blood samples, 25 μl of fresh blood were mixed with 25 μl of saponin solution (0.1% in water) and immediately frozen on dry ice. Plasma was obtained by centrifugation of fresh blood at 2,500 g for 10 min. Both blood and plasma samples were stored frozen at −80°C until analysis.
Diluted blood and plasma samples were processed under standard liquid–liquid extraction procedures using acetonitrile containing internal standard (clarithromycin, 100 ng·ml^−1) and analysed by LC–MS/MS in positive ion mode with electrospray. Samples were assayed for parent compound using a Sciex API 4000 and Sciex API‐2000 Triple Quadrupole Mass Spectrometer (Sciex, Division of MDS Inc., Toronto, Canada), against a series of matrix matched calibration curve standards, using multiple reaction monitoring (MRM) at the specific transitions for each compound. Non‐compartmental analysis was performed using WinNonlin, version 4.1 (Pharsight, Mountain View, CA), and the main pharmacokinetic parameters were estimated.

haem polymerization = assay: Cell-free haem polymerization assay; format: biochemical; settings: cell‐free, N = 2
Method: Experiments were performed according to Tripathi, Khan, Walker, and […] ([2004]). Briefly, a solution of sodium acetate containing mono-oleoyl glycol and the corresponding inhibitor at different concentrations is placed in 1.5-ml reaction tubes. […] Multiple washing steps with Tris/SDS and bicarbonate, to remove monomeric haem and haem aggregates, allow quantification of de novo formed β-haematin.

[5] = whole blood, po, 12.5 mg/kg, F, CD‐1 mice, 12.5 mg·kg^−1 i.v. and p.o.
[6] = 7G8, 72 h, read-out: IC50 7G8 (CQ, PY)
[7] = whole blood, intravenous, 12.5 mg/kg
[8] = whole blood, po, 12.5 mg/kg, fasted CD-1 mice
[9] = whole blood, po, 12.5 mg/kg, fed CD-1 mice

Row | Compound | ED90 [2] [mg/kg] | IC50 [3] [µM] | B/P (ratio of AUC0−t in whole blood and plasma) ([4]; CD‐1 mice) | DNAUCPO (AUC0−t divided by the dose) ([4]; CD‐1 mice) [ng·kg·h/mL/mg] | Vd ([4]; whole blood, 12.5 mg/kg) [L/kg] | clearance ([4]; whole blood, 12.5 mg/kg) [L/h/kg] | bioavailability [4, 5] [%] | IC50 (haem polymerization) [µM] | IC50 [1, 6] [µM] | half-life [4, 7] [h] | further results
1 | CC[C@H]1OC(=O)[C@H](C)[C@@H](O[C@H]2C[C@@](C)(OC)[C@@H](O)[C@H](C)O2)[C@H](C)[C@@H](O[C@@H]2O[C@H](C)C[C@H](N(C)C)[C@H]2O)[C@](C)(O)C[C@@H](C)CN(C)[C@H](C)[C@@H](O)[C@]1(C)O [Azithromycin, reference compound] | > 200 | 2.72 | 2.4 | 267 | 29.2 | 2.41 | 61 | > 50 | – | – | IC50 ([1]; 7G8, 72 h of incubation, N = 3, read-out: IC50 7G8 (CQ, PY)): 4.59 µM; Tox50 HepG2 (HepG2 cells): 203 ^b μM; half-life ([4]; in vivo, 12.5 mg/kg): 10.1 h
2 | CC[C@H]1OC(=O)[C@H](C)[C@@H](O[C@H]2C[C@@](C)(OC)[C@@H](O)[C@H](C)O2)[C@H](C)[C@@H](O[C@@H]2O[C@H](C)C[C@H](N(C)C)[C@H]2O)[C@](C)(O)C[C@@H](C)CN(CCCNc2ccnc3cc(Cl)ccc23)[C@H](C)[C@@H](O)[C@]1(C)O [Compound 1] | – | 0.013 | 14.0 | 253 | 4.42 | 0.117 | 4 | 2.5 to 4 | 0.037 | 28.2 | Tox50 HepG2 (HepG2 cells; ref Peric et al. ([2012])): 30 ^c μM; day of follow‐up up to which parasitaemia remained undetectable / parasite growth suppressed ([2]; humanized mice, oral 4‐day treatment): ≥ 24 days; bioavailability ([4]; whole blood, oral, 12.5 mg·kg^−1, F, fasted CD-1 mice, ratio of AUC0-t after PO and IV): 11.3%; bioavailability ([4]; whole blood, oral, 12.5 mg·kg^−1, F, fed CD-1 mice, ratio of AUC0-t after PO and IV): 3.75%; AUC(0-t) [4, 8]: 9.51 µg·h/mL; AUC(0-t) [4, 9]: 3.16 µg·h/mL; Cmax [4, 8]: 0.582 µg/mL; Cmax [4, 9]: 0.162 µg/mL; increase in oral F in fasted versus fed mice ([4]; fed versus fasted mice): threefold increase
3 | CC[C@H]1OC(=O)[C@H](C)[C@@H](O)[C@H](C)[C@@H](O[C@@H]2O[C@H](C)C[C@H](N(C)C)[C@H]2OCCCNc2ccnc3ccccc23)[C@](C)(O)C[C@@H](C)CN[C@H](C)[C@@H](O)[C@]1(C)O [Compound 3] | 23.9 | 0.021 | 3.7 | 362 | 13.4 | 0.606 | 26 | 5 to 6.2 | 0.017 | 15.6 | Tox50 HepG2 (HepG2 cells; ref Pesic et al. ([2012])): 83 ^b μM
